# In patent US10138225B2 (Achillion Pharmaceuticals, Inc., priority 2015, dated 2018):
# Target: T1, Human Factor D (Homo sapiens, UniProt P00746)
# T1 construct: purified from human serum; purchased Complement Technology, Inc; host or cells: human serum (natural protein, not recombinant)
# Test: Human Factor D Assay
# Assay type: biochemical
# Details: Table 1; Factor D 80 nM, substrate Z-L-Lys-SBzl; read-out: IC50
# Method: Human Factor D (purified from human serum, Complement Technology, Inc.) at 80 nM final concentration is incubated with test compound at various concentrations for 5 minutes at room temperature in 50 mM Tris, 1M NaCl, pH 7.5. A synthetic substrate Z-L-Lys-SBzl and DTNB (Ellman's reagent) are added to final concentrations of 100 μM each. Absorbance at 405 nm (A405) is recorded at 30 second intervals for 30 minutes using a microplate spectrophotometer. IC50 values are calculated by nonlinear regression of complement Factor D reaction rates as a function of test compound concentration.
# T1 sequence (P00746 26-253): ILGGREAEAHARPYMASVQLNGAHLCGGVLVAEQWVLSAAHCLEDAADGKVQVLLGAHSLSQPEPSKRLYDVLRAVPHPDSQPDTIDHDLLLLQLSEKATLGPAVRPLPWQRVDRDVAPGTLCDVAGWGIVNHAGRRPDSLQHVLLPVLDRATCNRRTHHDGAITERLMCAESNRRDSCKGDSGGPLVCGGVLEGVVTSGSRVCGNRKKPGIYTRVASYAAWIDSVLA
row,SMILES,IC50
1,"NC(=O)c1nn(CC(=O)N2C[C@H](F)C[C@H]2C(=O)Nc2cccc(OC(F)(F)F)c2F)c2ccc(NC(=O)Nc3ccon3)cc12 [Compound 25, 1-(2-((2S,4R)-4-fluoro-2-(2-fluoro-3-(trifluoromethoxy)phenylcarbamoyl)pyrrolidin-1-yl)-2-oxoethyl)-5-(3-isoxazol-3-ylureido)-1H-indazole-3-carboxamide]",< 1 µM
2,NC(=O)c1nn(CC(=O)N2C[C@H](F)C[C@H]2C(=O)Nc2cccc(OC(F)(F)F)c2F)c2ccc(NC(=O)N3CCCC(F)(F)C3)cc12 [Compound 26],< 1 µM
3,"NC(=O)c1nn(CC(=O)N2[C@@H]3C[C@@H]3C[C@H]2C(=O)Nc2cccc(OC(F)(F)F)c2F)c2ccc(NC(=O)N3CCCC(F)(F)C3)cc12 [Compound 27, 5-(3,3-difluoropiperidine-1-carboxamido)-1-(2-((1R,3S,5R)-3-(2-fluoro-3-(trifluoromethoxy)phenylcarbamoyl)-2-azabicylco[3.1.0]hexan-2-yl)-2-oxoethyl)-1H-indazole-3-carboxamide]",< 1 µM
4,"NC(=O)c1nn(CC(=O)N2[C@@H]3C[C@@H]3C[C@H]2C(=O)Nc2cccc(-c3ccccc3Cl)c2F)c2ccc(NC(=O)N3CCCC(F)(F)C3)cc12 [Compound 28, 1-(2-((1R,3S,5R)-3-(2′-chloro-2-fluorobiphenyl-3-ylcarbamoyl)-2-azabicyclo[3.1.0]hexan-2-yl)-2-oxoethyl)-5-(3,3-difluoropiperidine-1-carboxamido)-1H-indazole-3-carboxamide]",< 1 µM
5,"NC(=O)c1nn(CC(=O)N2C[C@H](F)C[C@H]2C(=O)Nc2cccc(-c3ncccc3Cl)c2F)c2ccc(NC(=O)N3CCCC(F)(F)C3)cc12 [Compound 29, 1-(2-((2S,4R)-2-(3-(3-chloropyridin-2-yl)-2-fluorophenylcarbamoyl)-4-fluoropyrrolidin-1-yl)-2-oxoethyl)-5-(3,3-difluoropiperidine-1-carboxamido)-1H-indazole-3-carboxamide]",< 1 µM
6,"NC(=O)c1nn(CC(=O)N2C[C@H](F)C[C@H]2C(=O)Nc2cccc(-c3ccccc3Cl)c2F)c2ccc(NC(=O)N3CCC(F)(F)C3)cc12 [Compound 30, 1-(2-((2S,4R)-2-(2′-chloro-2-fluorobiphenyl-3-ylcarbamoyl)-4-fluoropyrrolidin-1-yl)-2-oxoethyl)-5-(3,3-difluoropyrrolidine-1-carboxamido)-1H-indazole-3-carboxamide]",< 1 µM
7,"NC(=O)c1nn(CC(=O)N2C[C@H](F)C[C@H]2C(=O)Nc2cccc(-c3ccccc3Cl)c2F)c2ccc(NC(=O)N3CCC(F)(F)CC3)cc12 [Compound 31, 1-(2-((2S,4R)-2-(2′-chloro-2-fluorobiphenyl-3-ylcarbamoyl)-4-fluoropyrrolidin-1-yl)-2-oxoethyl)-5-(4,4-difluoropiperidine-1-carboxamido)-1H-indazole-3-carboxamide]",< 1 µM
8,"NC(=O)c1nn(CC(=O)N2C[C@H](F)C[C@H]2C(=O)Nc2cccc(-c3ccccc3Cl)c2F)c2ccc(NC(=O)NCc3ncccn3)cc12 [Compound 32, 1-(2-((2S,4R)-2-(2′-chloro-2-fluorobiphenyl-3-ylcarbamoyl)-4-fluoropyrrolidin-1-yl)-2-oxoethyl)-5-(3-(pyrimidin-2-ylmethyl)ureido)-1H-indazole-3-carboxamide]",< 1 µM
9,"NC(=O)c1nn(CC(=O)N2C[C@H](F)C[C@H]2C(=O)Nc2cccc(Br)n2)c2ccc(NC(=O)N3CCCC(F)(F)C3)cc12 [Compound 33, 1-(2-((2S,4R)-2-(6-bromopyridin-2-ylcarbamoyl)-4-fluoropyrrolidin-1-yl)-2-oxoethyl)-5-(3,3-difluoropiperidine-1-carboxamido)-1H-indazole-3-carboxamide]",< 1 µM
10,"NC(=O)c1nn(CC(=O)N2[C@@H]3C[C@@H]3C[C@H]2C(=O)Nc2cccc(Br)n2)c2ccc(NC(=O)N3CCCC(F)(F)C3)cc12 [Compound 34, 1-(2-((1R,3S,5R)-3-(6-bromopyridin-2-ylcarbamoyl)-2-azabicylco[3.1.0]hexan-2-yl)-2-oxoethyl)-5-(3,3-difluoropiperidine-1-carboxamido)-1H-indazole-3-carboxamide]",< 1 µM
11,"CC(=O)c1cn(CC(=O)N2C[C@H](F)C[C@H]2C(=O)Nc2cccc(-c3ccccc3Cl)c2F)c2ccc(NC(=O)C3CCC(F)(F)C3)cc12 (stereo partly drawn) [Compound 35, (2S,4R)-1-(2-(3-acetyl-5-(3,3-difluorocyclopentane-carboxamido)-1H-indol-1-yl)acetyl)-N-(2′-chloro-2-fluorobiphenyl-3-yl)-4-fluoropyrrolidine-2-carboxamide]",< 1 µM
12,"CC(=O)c1cn(CC(=O)N2C[C@H](F)C[C@H]2C(=O)Nc2cccc(-c3ccccc3Cl)c2F)c2ccc(NC(=O)CC(F)(F)F)cc12 [Compound 36, (2S,4R)-1-(2-(3-acetyl-5-(3,3,3-trifluoropropanamido)-1H-indol-1-yl)acetyl)-N-(2′-chloro-2-fluorobiphenyl-3-yl)-4-fluoropyrrolidine-2-carboxamide]",< 1 µM
13,"CC(=O)c1cn(CC(=O)N2C[C@H](F)C[C@H]2C(=O)NCc2cccc(Cl)c2F)c2cc(NC(=O)OC(C)(C)C)ccc12 [Compound 37, tert-butyl 3-acetyl-1-(2-((2S,4R)-2-(3-chloro-2-fluorobenzylcarbamoyl)-4-fluoropyrrolidin-1-yl)-2-oxoethyl)-1H-indol-6-ylcarbamate]",< 1 µM
14,"CC(=O)c1cn(CC(=O)N2C[C@H](F)C[C@H]2C(=O)NCc2cccc(Cl)c2F)c2ccc(C(=O)N3CC=C(B(O)O)CC3)cc12 [Compound 38, 1-(3-acetyl-1-(2-((2S,4R)-2-(3-chloro-2-fluorobenzylcarbamoyl)-4-fluoropyrrolidin-1-yl)-2-oxoethyl)-1H-indole-5-carbonyl)-1,2,3,6-tetrahydropyridin-4-ylboronic acid]",< 1 µM
15,"CC(=O)c1cn(CC(=O)N2C[C@H](F)C[C@H]2C(=O)NCc2cccc(Cl)c2F)c2ccc(C(=O)N3CC4CCC3C4)cc12 (stereo partly drawn) [Compound 39, (2S,4R)-1-(2-(3-acetyl-5-(2-azabicyclo[2.2.1]heptane-2-carbonyl)-1H-indol-1-yl)acetyl)-N-(3-chloro-2-fluorobenzyl)-4-fluoropyrrolidine-2-carboxamide]",< 1 µM
16,"CC(=O)c1cn(CC(=O)N2C[C@H](F)C[C@H]2C(=O)NCc2cccc(Cl)c2F)c2ccc(C(=O)N3CCCC(F)(F)C3)cc12 [Compound 40, (2S,4R)-1-(2-(3-acetyl-5-(3,3-difluoropiperidine-1-carbonyl)-1H-indol-1-yl)acetyl)-N-(3-chloro-2-fluorobenzyl)-4-fluoropyrrolidine-2-carboxamide]",< 1 µM
17,"CC(=O)c1cn(CC(=O)N2C[C@H](F)C[C@H]2C(=O)NCc2cccc(Cl)c2F)c2ccc(C(=O)NC3CC3)cc12 [Compound 41, 3-acetyl-1-(2-((2S,4R)-2-(3-chloro-2-fluorobenzylcarbamoyl)-4-fluoropyrrolidin-1-yl)-2-oxoethyl)-N-cyclopropyl-1H-indole-5-carboxamide]",< 1 µM
18,"CC(=O)c1cn(CC(=O)N2C[C@H](F)C[C@H]2C(=O)NCc2cccc(Cl)c2F)c2cc(C(=O)N3CCC(CN)C3)ccc12 (stereo partly drawn) [Compound 42, (2S,4R)-1-(2-(3-acetyl-6-(3-(aminomethyl)-pyrrolidine-1-carbonyl)-1H-indol-1-yl)acetyl)-N-(3-chloro-2-fluorobenzyl)-4-fluoropyrrolidine-2-carboxamide]",< 1 µM
19,CC(=O)c1cn(CC(=O)N2C[C@H](F)C[C@H]2C(=O)NCc2cccc(Cl)c2F)c2cc(C(=O)NS(C)(=O)=O)ccc12 [Compound 43],< 1 µM
20,"CC(=O)c1cn(CC(=O)N2C[C@H](F)C[C@H]2C(=O)NCc2cccc(Cl)c2F)c2cc(C(=O)N[C@H]3CCN(C(=O)OC(C)(C)C)C3)ccc12 [Compound 44, (S)-tert-butyl 3-(3-acetyl-1-(2-((2S,4R)-2-(3-chloro-2-fluorobenzyl-carbamoyl)-4-fluoropyrrolidin-1-yl)-2-oxoethyl)-1H-indole-6-carboxamido) pyrrolidine-1-carboxylate]",< 1 µM
21,"CC(=O)c1cn(CC(=O)N2C[C@H](F)C[C@H]2C(=O)NCc2cccc(Cl)c2F)c2cc(C(=O)N[C@H]3CCNC3)ccc12 [Compound 45, 3-acetyl-1-(2-((2S,4R)-2-(3-chloro-2-fluorobenzyl-carbamoyl)-4-fluoropyrrolidin-1-yl)-2-oxoethyl)-N-((S)-pyrrolidin-3-yl)-1H-indole-6-carboxamide]",< 1 µM
22,"CC(=O)c1cn(CC(=O)N2C[C@H](F)C[C@H]2C(=O)NCc2cccc(Cl)c2F)c2cc(C(=O)N[C@H]3CCN(C(C)=O)C3)ccc12 [Compound 46, 3-acetyl-N-((S)-1-acetylpyrrolidin-3-yl)-1-(2-((2S,4R)-2-(3-chloro-2-fluorobenzylcarbamoyl)-4-fluoropyrrolidin-1-yl)-2-oxoethyl)-1H-indole-6-carboxamide]",< 1 µM
23,"CC(=O)c1cn(CC(=O)N2C[C@H](F)C[C@H]2C(=O)NCc2cccc(Cl)c2F)c2cc(C(=O)NS(=O)(=O)C3CC3)ccc12 [Compound 48, 3-acetyl-1-(2-((2S,4R)-2-(3-chloro-2-fluorobenzylcarbamoyl)-4-fluoropyrrolidin-1-yl)-2-oxoethyl)-N-(cyclopropylsulfonyl)-1H-indole-6-carboxamide]",< 1 µM
24,"CC(=O)c1cn(CC(=O)N2C[C@H](F)C[C@H]2C(=O)NCc2cccc(Cl)c2F)c2cc(C(=O)NCC3CCNC3)ccc12 (stereo partly drawn) [Compound 49, 3-acetyl-1-(2-((2S,4R)-2-(3-chloro-2-fluorobenzylcarbamoyl)-4-fluoropyrrolildin-1-yl)-2-oxoethyl)-N-(pyrrolidin-3-ylmethyl)-1H-indole-6-carboxamide]",< 1 µM
